This is an account of results in US8551957B2, “Pharmaceutical composition comprising a glucopyranosyl-substituted benzene derivate” (Boehringer Ingelheim International GmbH, priority 2007, dated 2013).

The test system of experiment [1] is Sprague Dawley rats (Crl:CD(SD)). Briefly: oral glucose tolerance test in overnight fasted Sprague Dawley rats (2nd Example). The class given is in vivo, rat. The following applies: male Sprague Dawley rats, not statistically significant. The method, then:
(§1) According to a second example an oral glucose tolerance test is performed in overnight fasted male Sprague Dawley rats (Crl:CD(SD)) with a body weight of about 200 g. A pre-dose blood sample is obtained by tail bleed. Blood glucose is measured with a glucometer, and the animals are randomized for blood glucose (n=5/group). Subsequently, the groups receive a single oral administration of either vehicle alone (0.5% aqueous hydroxyethylcellulose containing 0.015% Polysorbat 80) or vehicle containing either the glucopyranosyl-substituted benzene derivative or the DPPIV inhibitor or the combination of the glucopyranosyl-substituted benzene derivative with the DPPIV inhibitor. The animals receive an oral glucose load (2 g/kg) 30 min after compound administration. Blood glucose is measured in tail blood 30 min, 60 min, 90 min, and 120 min after the glucose challenge. Glucose excursion is quantified by calculating the reactive glucose AUC. The data are presented as mean±S.E.M. Statistical comparisons are conducted by Student's t test.
“Cpd. A” is the glucopyranosyl-substituted benzene derivative (9), i.e. 1-chloro-4-(β-D-glucopyranos-1-yl)-2-[4-((S)-tetrahydrofuran-3-yloxy)-benzyl]-benzene, administered at a dose of 3 mg/kg. The DPPIV inhibitor saxagliptin is administered at a dose of 0.3 mg/kg. […]

The subject of experiment [2] is Zucker Diabetic Fatty (ZDF) rats (ZDF/Crl-Lepr^fa). Briefly: oral glucose tolerance test in overnight fasted ZDF rats (1st Example). It is filed as in vivo, rat. The following applies: male ZDF rats. On the procedure:
According to a first example an oral glucose tolerance test is performed in overnight fasted 9-weeks old male Zucker Diabetic Fatty (ZDF) rats (ZDF/Crl-Lepr^fa). A pre-dose blood sample is obtained by tail bleed. Blood glucose is measured with a glucometer, and the animals are randomized for blood glucose (n=5/group). Subsequently, the groups receive a single oral administration of either vehicle alone (0.5% aqueous hydroxyethylcellulose containing 3 mM HCl and 0.015% Polysorbat 80) or vehicle containing either the glucopyranosyl-substituted benzene derivative or the DPP IV inhibitor or the combination of the glucopyranosyl-substituted benzene derivative with the DPP IV inhibitor. The animals receive an oral glucose load (2 g/kg) 30 min after compound administration. Blood glucose is measured in tail blood 30 min, 60 min, 90 min, 120 min, and 180 min after the glucose challenge. Glucose excursion is quantified by calculating the reactive glucose AUC. The data are presented as mean±SEM. The two-sided unpaired Student t-test is used for statistical comparison of the control group and the active groups.
“Cpd. A” is the DPP IV inhibitor 1-[(4-methyl-quinazolin-2-yl)methyl]-3-methyl-7-(2-butyn-1-yl)-8-(3-(R)-amino-piperidin-1-yl)-xanthine at a dose of 1 mg/kg. Cpd. […]

The test system of experiment [3] is Sprague Dawley rats (Crl:CD(SD)). Briefly: oral glucose tolerance test in overnight fasted Sprague Dawley rats (3rd Example). The class given is in vivo, rat. The following applies: male Sprague Dawley rats, not statistically significant. On the procedure:
as §1
In a third example the same experimental setting is employed as in the second example as described herein before. The glucopyranosyl-substituted benzene derivative (9), i.e. 1-chloro-4-(β-D-glucopyranos-1-yl)-2-[4-((S)-tetrahydrofuran-3-yloxy)-benzyl]-benzene, is administered at a dose of 3 mg/kg. […]

For experiment [4] the following is noted: in the diabetic, metformin on its own; cited from earlier work.
The mark [5] stands for this setting: single oral dose 3 mg/kg 30 min before glucose load 2 g/kg.

Each structure is given as a SMILES string.

On to `N#C[C@@H]1C[C@@H]2C[C@@H]2N1C(=O)[C@@H](N)C12CC3CC(CC(O)(C3)C1)C2` [saxagliptin, (1S,3S,5S)-2-{(2S)-2-amino-2-(3-hydroxyadamantan-1-yl)acetyl}-2-azabicyclo[3.1.0]hexane-3-carbonitrile, reference compound], for which, in experiment [1] (single oral dose 0.3 mg/kg 30 min before glucose load 2 g/kg), the “reduction of glucose excursion (reactive glucose AUC)” value (from here on “reduction of glucose excursion”) is given as 12%.

As to `OC[C@H]1O[C@@H](c2ccc(Cl)c(Cc3ccc(O[C@H]4CCOC4)cc3)c2)[C@H](O)[C@@H](O)[C@@H]1O` [(9), 1-chloro-4-(β-D-glucopyranos-1-yl)-2-[4-((S)-tetrahydrofuran-3-yloxy)-benzyl]-benzene], the “reduction of glucose excursion” value in experiment [1] (setting [5]) was found to be 21%; in experiment [2] (single oral dose 3 mg/kg 30 min before oral glucose load 2 g/kg) it was 51%; in experiment [3] (setting [5]), 21%.

Regarding `N[C@@H](CC(=O)N1CCn2c(nnc2C(F)(F)F)C1)Cc1cc(F)c(F)cc1F` [sitagliptin, (3R)-3-amino-1-[3-(trifluoromethyl)-5,6,7,8-tetrahydro-5H-[1,2,4]triazolo[4,3-a]pyrazin-7-yl]-4-(2,4,5-trifluorophenyl)butan-1-one, reference compound], the “reduction of glucose excursion” value in experiment [3] (single oral dose 10 mg/kg 30 min before glucose load 2 g/kg) was 16%.

In the case of `CN(C)C(=N)N=C(N)N` [metformin], the “average improvement in the HbA1c value” in experiment [4] is 1.0-1.5%.

Regarding `CC#CCn1c(N2CCC[C@@H](N)C2)nc2c1c(=O)n(Cc1nc(C)c3ccccc3n1)c(=O)n2C` [Cpd. A, 1-[(4-methyl-quinazolin-2-yl)methyl]-3-methyl-7-(2-butyn-1-yl)-8-(3-(R)-amino-piperidin-1-yl)-xanthine], in experiment [2] (single oral dose 1 mg/kg 30 min before oral glucose load 2 g/kg), the “reduction of glucose excursion” value was determined as 56%.
